Laboratory results reported in US6528685B2 (Teva Pharmaceutical Industries, Ltd., priority 1994, dated 2003).
“And” between values parts separate entries of the source, which are not always exact repeats. Equal entries are not always repeated. Structures can show the parent of a compound that is named as a salt. Where two headings read alike, the source gives them in different places.

Columns and labels:
rats [1] = test: Neurotoxicity in rats, positional sense test and gait stance test; conditions: rats p.o.; positional sense test and gait stance test
Procedure: (§1) Neurotoxicity of the claimed agents was also assessed in mice (i.p. administration) by the rotorod ataxia test and/or in rats (p.o. administration) by positional sense test and gait stance test. […] The term quantitating the neurotoxicity is the medial neurological toxic dose (TD50), was determined in the above tests.

mice [2] = test: Neurotoxicity in mice, rotorod ataxia test; conditions: mice i.p., rotorod ataxia test
Procedure: as §1

rats [3] = test: Maximal electroshock (MES) model, rats; conditions: rats, oral (p.o.) administration; median effective dose
mice [4] = test: Maximal electroshock (MES) model, mice; conditions: mice; for MICE MES ED50: intraperitoneal (i.p.) administration
mice [5] = conditions: mice i.p.
rats [6] = conditions: rats p.o.
[7] = system: Mechanically dissociated Neonatal Rat Cerebellum; test: Reversal of NMDA induced cell death, neonatal rat cerebellum cultures; format: cell-based; conditions: for SURVIVING CELL IN CULTURE: relative to control (100%); for PERCENT PROTECTION: cell survival minus NMDA effect (30%); for EFFECTIVE PROTECTION: percent protection x 100/70
Procedure: The cerebellum was aseptically dissociated from 6 or 7-day old rat pups and placed in a 15 ml sterile plastic conical tube containing 3 ml of Dulbecco's modified Eagle's medium (DMEM) with a high glucose concentration ([…]) and 2 mM (v/v) L-glutamine and an antibiotic antimitotic mixture. The cerebella were then dissociated after 20-25 passages through a sterile 13 gauge, 10 cm long stainless steel needle attached to a 5 ml syringe with an inserted 45 micrometer pore nylon sieve. The dissociated cells were centrifuged at 200 g for 5 minutes. The supernatant was discarded and the cells resuspended in medium enriched with 15% (v/v) heat inactivated fetal calf serum. Cell viability was determined by the tryptan blue exclusion test.
Cells were plated at a density of 200/mm^2 on poly-L-lysine coated surfaces. Poly-L-lysine coated glass coverslips were prepared at least one hour in advance of plating by immersing sterile coverslips in sterile distilled water solution containing 15 microgram/ml poly-L-lysine, and washing in sterile water just prior to use. The plated cells were covered with enriched medium and incubated at 37° C. in an atmosphere of 5% CO2 in air and 97% humidity. After three days in culture, the media was replaced with media containing the desired test compound. Each test compound was tested in duplicate. Toxic-dose response was determined for each compound.
Four groups were run in each set of experiments;
I. Control, consisting of enriched media alone,
II. N-methyl-D-aspartate (NMDA, 1 mM for 3 hours) as the cytotoxic challenge,
III. Test compound plus NMDA, and
IV. Positive control, spermine(0.01 micromoles) plus NMDA.
Nerve cell survival was evaluated by phase contrast microscopy and tryptan blue staining after 24 hours.
Surviving cells in culture are measured relative to control (100%) as described above. Percent protection is the Cell Survival for the test compound minus the NMDA effect. Thus, maximal protection is 100% minus 30% NMDA effect i.e. 70%. The Effective Protection was calculated as the percent of the Percent Protection (X) divided by the maximal protection value (e.g. X×100/70).

mongolian gerbils = test: Global brain ischemia in gerbils; format: in vivo, mongolian gerbil; conditions: 3 injections, fraction of hippocampi protected from ischemia, 14 days post-ischemia
Procedure: Male mongolian gerbils, aged 2.5-5 months, housed 4-8 in a cage, were supplied freely with food and water and maintained at 24° C. with a 12 hour day/night cycle. […] Each artery was clamped for 5 minutes with aneurysm clips to produce global brain ischemia. The anesthesia was discontinued upon clamping. After 5 minutes the clamps were removed and the wound closed with skin clips.
For treatment, the test compound or vehicle were injected intra-peritoneally (ip) in a volume of 50 microliters of solvent per 10 g body weight. The first injection was given two minutes after clamp removal, and thereafter daily for the next 2 post-operative days (total of 3 injections).
Seven groups each of 4-8 animals were compared:
V. Ischemia—Test compound treated, one sub-group per concentration tested,
VI. Ischemia and pentobarbital (40 mg/kg) as positive control).
Analysis of neuronal damage was performed 14 days post-ischemia by counting pyramidal neurons throughout the CA1 layer of the anterior hippocampus in […] thick (paraffin) coronal brain sections stained with hematoxylin and erosin.
Percent Protection values represent the fraction of hippocampi protected from ischemia in a group of animals treated with the stated dose of compound.

Structure (SMILES)	RATS TD50 (rats [1]) [mg/kg]	MICE TD50 (mice [2])	RATS MES 50 (rats [3]) [mg/kg]	MICE MES ED50 (mice [4]) [mg/kg]	MICE scMet ED50 PI (mice [5]) [mg/kg]	further results
NC(=O)CNC1CCc2ccccc21 (racemic) [Compound 3, (rac)-N-(2-Acetamido)-1-aminoindan.HCl]	>50	>100 mg/kg and 126 mg/kg	<50	<100	36	MICE TD50 (mice [2]; listed as 3*): 127 mg/kg; MICE MES ED50 (mice [4]; listed as 3*): 83 mg/kg; MICE scMet ED50 PI (mice [5]; listed as 3*): >130 mg/kg
NC(=O)CNC1CCc2ccc(F)cc21 (racemic) [Compound 5, (rac)-6-Fluoro-N-(2-acetamido)-1-aminoindan.HCl]	–	>300 mg/kg	–	<100	>200	MICE TD50 (mice [2]; listed as 5*): 138 mg/kg; activity in the MES model in mice, in words (mice [4]): showed activity; MICE MES ED50 (mice [4]; listed as 5*): 58 mg/kg
NC(=O)CN[C@@H]1CCc2ccccc21 [Compound 1, (R)-N-(2-Acetamido)-1-aminoindan.HCl]	>50	198 mg/kg	50	77	>200	–
CN[C@H]1CCc2ccccc21.Cl [Compound 14, (S)-N-Methyl-1-aminoindan.HCl]	>142	100 mg/kg	94	<100	–	RATS scMet ED50 PI (rats [6]): >71 mg/kg
Cl.N[C@@H]1CCc2ccc(O)cc21 [Compound 35, (R)-6-Hydroxy-1-aminoindan.HCl]	–	–	–	–	–	SURVIVING CELL IN CULTURE ([7]; 0.005 μM + NMDA 1 mM 3 hours): 60%; PERCENT PROTECTION ([7]; 0.005 μM + NMDA): 30%; EFFECTIVE PROTECTION ([7]; 0.005 μM + NMDA): 43%; SURVIVING CELL IN CULTURE ([7]; 0.010 μM + NMDA 1 mM 3 hours): 34%; PERCENT PROTECTION ([7]; 0.010 μM + NMDA): 4%; EFFECTIVE PROTECTION ([7]; 0.010 μM + NMDA): 6%; SURVIVING CELL IN CULTURE ([7]; 0.100 μM + NMDA 1 mM 3 hours): 30%; PERCENT PROTECTION ([7]; 0.100 μM + NMDA): 0%; EFFECTIVE PROTECTION ([7]; 0.100 μM + NMDA): 0%; PERCENT PROTECTION (mongolian gerbils; 0.1 mg/kg ip): 25.0%; PERCENT PROTECTION (mongolian gerbils; 1.0 mg/kg ip): 37.5%; PERCENT PROTECTION (mongolian gerbils; 10.0 mg/kg ip): 37.5%
Cl.NC(=O)CN[C@@H]1CCc2ccccc21 [D, (R)-Indanylglycinamide-HCl salt]	>180	–	–	83	>130	–
